In article PMC10406627 (The Journal of Biological Chemistry, 2023):

Target: T1, N4CMT79–324 (Adineta vaga, UniProt A0AAB0B2A1)
T1 sequence (A0AAB0B2A1 2-247): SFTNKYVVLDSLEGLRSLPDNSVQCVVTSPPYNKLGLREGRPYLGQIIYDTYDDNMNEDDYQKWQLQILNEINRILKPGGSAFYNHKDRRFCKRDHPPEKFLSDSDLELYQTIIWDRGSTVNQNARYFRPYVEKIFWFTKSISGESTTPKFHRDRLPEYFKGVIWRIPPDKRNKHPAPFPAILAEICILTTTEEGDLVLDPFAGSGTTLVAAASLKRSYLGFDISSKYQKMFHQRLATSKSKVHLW
Assay: X-ray crystal structure, […] A, space group C222_[…]
Settings: SAM-binding site; 600 uM sinefungin preincubated, no DNA

Nc1ncnc2c1ncn2[C@@H]1O[C@H](C[C@@H](N)CC[C@H](N)C(=O)O)[C@@H](O)[C@H]1O [sinefungin]
X-ray crystal structure, 1.49 A, space group C222_1: sinefungin binds in the SAM-binding site, and its adenosyl moiety is solvent-exposed on the surface
